Source: patent publication US12544575B2, “Bioelectric neuromodulation for hematopoiesis regulation during chemotherapy” (THE REGENTS OF THE UNIVERSITY OF CALIFORNIA, priority 2020, dated 2026)

Key:
Type in all cases: in vivo, rat
[1] = test system: SD rats; test: Survival of rats after two cycles of carboplatin chemotherapy; conditions: after two cycles of carboplatin over a period of 60 days; carboplatin 60 mg/kg intraperitoneally on day 0, ES or G-CSF on day 2
Method: (§1) In FIG. 7A is seen white blood cell concentration for each of the five groups of rats which were tested over two cycles of testing. Male SD rats (weighing 350 to 400 g) were used for studying chemotherapy-induced cytopenia. The rats were divided into five experimental groups: control group; electrical stimulation group; carboplatin group; carboplatin+electrical stimulation (ES) group; and carboplatin+G-CSF group.
(§2) For each cycle of treatment, a single dose of carboplatin (e.g., 60 mg/kg) or vehicle (saline) was injected intraperitoneally on day 0. On day 2, electrical autonomic nerve stimulation was performed for a specified period (e.g., 60 minutes), or a single dose of G-CSF was administered on the rats according to the different experimental groups. In the example treatment each cycle of treatment is considered to be 28 days, however, a treatment cycle could span from one to eight weeks.
FIG. 10 illustrates an example embodiment 590 of results indicating survival rates of the rats in the same five groups (control, ES, carboplatin, carboplatin+ES, and carboplatin+G-CSF) as previously described after two cycles of carboplatin over a period of 60 days.

[2] = test system: SD rats; test: Chemotherapy-induced cytopenia, complete blood count of peripheral blood
Method: as §1, §2
Blood samples for complete blood count (CBC) were collected in EDTA tubes on various days (day 0, 2, 7, 10, 14, 17, 21, and 28).

[3] = test system: bone marrow of SD rats; test: Immunofluorescence staining of the bone marrow microenvironment (nestin, TH, CD31)
Method: The testing utilized immunofluorescence staining of nestin for mesenchymal stem cell, tyrosine hydroxylase (TH+) for sympathetic nerve, and CD31 for vascular to evaluate the alteration of bone marrow microenvironment after […] of carboplatin.
After two cycles of chemotherapy, exemplified as using carboplatin with different dosages of 40 mg/kg and 60 mg/kg, the bone marrow of the rats from the five experimental groups was analyzed by immunofluorescence to evaluate the alteration of the bone marrow microenvironment. The bone marrow tissue of rats was stained with nestin, TH and anti-CD31 antibody for mesenchymal stem cell, sympathetic nerve and endothelial cell, respectively.

[4] = after three cycles of carboplatin
[5] = after two cycles of carboplatin, 40 mg/kg and 60 mg/kg

N.N.O=C([O-])C1(C(=O)[O-])CCC1.[Pt+2] [carboplatin] was tested, and the survival rate [1] was 37.5%, the concentration of hemoglobin ([2]; after carboplatin administration, whether rescue by electrical stimulation or G-CSF) was “significantly decreased” and the “platelet count compared to the control group” value ([2]; day 10 of the first and second cycle) was “significantly reduced”. The “area of TH+/CD31 by immunofluorescence staining versus control group” value [3, 4] was “lower levels”, the “expression of TH+ in the sympathetic nerve” value [3, 4] was “reduced expression” and the “expression of nestin (mesenchymal stem cell) in comparison to the control group” value [3, 4] was “more extensive expression”. For the same compound, the “area of the sympathetic nerve along with arteriole compared to the control group” value [3, 5] was “significantly decreased” and the “mesenchymal stem cells compared to the control group” value [3, 5] was “increased”.
